Results taken from patent US20090298814A1, “Novel salts of conjugated psychotropic drugs and processes of preparing same” (RAMOT AT TEL AVIV UNIVERISTY LTD, priority 2005, published 2009).
Where a name gives a salt, the structure may show the parent alone.

What was measured:
Format in all cases: physicochemical
[1] = Solubility in 1% weight/volume lactic acid solution; details: agitated 1 hour at room temperature, listed as maleate salt
Method: 1.0 gram of each of the mesylate and maleate addition salts prepared as described herein was agitated in 10 ml of 1% weight/volume lactic acid solution for 1 hour at room temperature. Any solids remaining thereafter were filtered off and the filtrate was dried under vacuum until no further change in weight was detected. […] The calculated solubility obtained for the mesylate salt was more than 100 mg/ml.

[2] = Hygroscopicity of mesylate and maleate salts by Karl Fischer titration
Method: Water absorption and content measurements were carried out using a Karl Fischer (KF) titrator. Karl Fischer titration is a classic method in analytical chemistry that uses calometric titration to determine the moisture content of a sample, which is specific to water. The titration reaction taking place in the presence of a base and 50:50 methanol:dichloromethane as a titration solvent.
The accurately weighted samples (near 100 mg) of the tested compound were placed in the titrator to determine the amount of sample required for measuring 10-250 μg of water, and the water content was calculated accordingly.
(§1) Stability and hygroscopicity studies of the mesylate and maleate salts of the conjugate were carried out under various conditions. The hygroscopicity of the salts was determined by following the water content of the salt using the Karl Fischer (KF) titration analysis method. The chemical stability of the salts was determined by following the appearance of the degradation product perphenazine using HPLC analyses. The samples were kept at −20° C. under nitrogen, at room temperature in an open container, at room temperature in a sealed container and at 40° C. in a sealed container. The samples were tested at the end of the preparation procedure (t=0), 72 hours after the preparation time (t=72), 1 week after the preparation time (t=168) and two weeks after the preparation time (t=336).

[3] = Chemical stability of mesylate and maleate salts by HPLC under various storage conditions
Method: The chemical stability of the conjugates was determined by HPLC analyses and was measured by the relative peak areas of the substance and of at least one of its degradation products. Thus, as is further exemplified in the Examples section that follows, the chemical stability of the exemplary conjugates described above was measured during time periods that typically ranged from 1 day to 24 days, whereby the conjugates were kept in sealed or open containers, with or without nitrogen atmosphere, and at a temperature range of from −20° C. to 40° C.
HPLC analyses were performed on a Water 2695 Separations Module, using a Luna C18 (2) 50 mm×4.6 mm×3 um column, a 5 μl injection volume and a 2487 dual wavelength detector under the following instrumental conditions: Mobile phase A: 0.1% formic acid; Mobile phase B: acetonitrile; Flow rate: 0.5 ml per minute; Mobile phase gradient: 0.0 minutes 90% A, 10% B, 14.0 minutes 20% A, 80% B, 15.0 minutes 90% A, 10% B and 20.0 minutes 90% A, 10% B; Run time: 20 minutes; Detection: UV at 254 nm; Column temperature: 40° C.
as §1

[4] = as above; remark: listed apart in the source
[5] = Open container kept at room temperature, t = 0 hours
[6] = Open container kept at room temperature, t = 72 hours
[7] = Open container kept at room temperature, t = 168 hours
[8] = Open container kept at room temperature, t = 336 hours
[9] = Sealed container kept at 40° C., t = 0 hours
[10] = Sealed container kept at 40° C., t = 72 hours
[11] = Sealed container kept at 40° C., t = 168 hours
[12] = Sealed container kept at 40° C., t = 336 hours
[13] = Sealed container kept at room temperature, t = 0 hours
[14] = Sealed container kept at room temperature, t = 72 hours
[15] = Sealed container kept at room temperature, t = 168 hours
[16] = Sealed container kept at room temperature, t = 336 hours
[17] = Sealed container kept at −20° C. under N2, t = 0 hours
[18] = Sealed container kept at −20° C. under N2, t = 72 hours
[19] = Sealed container kept at −20° C. under N2, t = 168 hours
[20] = Sealed container kept at −20° C. under N2, t = 336 hours
[21] = open container at room temperature, five weeks (about 840 hours)

## NCCCC(=O)OCCN1CCN(CCCN2c3ccccc3Sc3ccc(Cl)cc32)CC1 [maleate addition salt]
[1]
  calculated solubility: 48 mg/mL
[2]; [5]
  Water content %: 0.3%
[2]; [6]
  Water content %: 0.7%
[2]; [7]
  Water content %: 0.8%
[2]; [8]
  Water content %: 0.8%
[2]; [9]
  Water content %: 0.3%
[2]; [10]
  Water content %: 0.5%
[2]; [11]
  Water content %: 0.7%
[2]; [12]
  Water content %: 0.7%
[2]; [13]
  Water content %: 0.3%
[2]; [14]
  Water content %: 0.5%
[2]; [15]
  Water content %: 0.8%
[2]; [16]
  Water content %: 0.5%
[2]; [17]
  Water content %: 0.3%
[2]; [18]
  Water content %: 0.3%
[2]; [19]
  Water content %: 0.3%
[2]; [20]
  Water content %: 0.5%
[2]; [21]
  water content: 0.91%
[3]; [5]
  Salt peak area: 96.54%
  Unidentified impurity peak area: 1.05%
  perphenazine peak area: 1.44%
[3]; [6]
  Salt peak area: 96.43%
  Unidentified impurity peak area: 0.98%
  perphenazine peak area: 1.44%
[3]; [7]
  Salt peak area: 96.82%
  Unidentified impurity peak area: 0.94%
  perphenazine peak area: 1.46%
[3]; [8]
  Salt peak area: 96.00%
  Unidentified impurity peak area: 0.93%
  perphenazine peak area: 1.43%
[3]; [9]
  Salt peak area: 96.54%
  Unidentified impurity peak area: 1.05%
  perphenazine peak area: 1.44%
[3]; [10]
  Salt peak area: 94.96%
  Unidentified impurity peak area: 2.16%
  perphenazine peak area: 1.52%
[3]; [11]
  Salt peak area: 94.32%
  Unidentified impurity peak area: 2.46%
  perphenazine peak area: 1.65%
[3]; [12]
  Salt peak area: 92.93%
  Unidentified impurity peak area: 2.79%
  perphenazine peak area: 1.80%
[3]; [13]
  Salt peak area: 96.54%
  Unidentified impurity peak area: 1.05%
  perphenazine peak area: 1.44%
[3]; [14]
  Salt peak area: 96.24%
  Unidentified impurity peak area: 1.09%
  perphenazine peak area: 1.43%
[3]; [15]
  Salt peak area: 96.86%
  Unidentified impurity peak area: 1.11%
  perphenazine peak area: 1.40%
[3]; [16]
  Salt peak area: 95.69%
  Unidentified impurity peak area: 1.24%
  perphenazine peak area: 1.47%
[3]; [17]
  Salt peak area: 96.54%
  Unidentified impurity peak area: 1.05%
  perphenazine peak area: 1.44%
[3]; [18]
  Salt peak area: 96.79%
  Unidentified impurity peak area: 0.99%
  perphenazine peak area: 1.38%
[3]; [19]
  Salt peak area: 96.85%
  Unidentified impurity peak area: 0.98%
  perphenazine peak area: 1.39%
[3]; [20]
  Salt peak area: 96.69%
  Unidentified impurity peak area: 1.03%
  perphenazine peak area: 1.39%
[3]; all storage conditions of Table 8
  stability in words: stable in all sample forms
[3]; as compared to the HCl and mesylate salt
  stability and hygroscopicity in words: more stable and less hygroscopic
[3]; [21]
  perphenazine (HPLC): 1.46%
[4]; [21]
  purity (HPLC): 94.98%
[4]; room temperature, open to the atmosphere, listed as maleate salt
  texture and color after storage: slightly discolored, changing from yellow to light orange but stayed as a free flowing solid
